Positions of bridges follow the written chain, without caps; N, C: chain ends. Non-standard residues stand in square brackets, D forms with d. Residues, ends and D or L forms follow the SMILES beside them. *: point of attachment. X1 = CC1(C)C(/C=C/C=C/C=C/C=C2/N(CCC(=O)*)c3ccc4ccccc4c3C2(C)C)=[N+](CCC(=O)[O-])c2ccc3ccccc3c21
Tests used:
ABIR = ABIR (Homo sapiens, UniProt P05106+P06756); assay: ABIR binding affinity; details: relative to reference cypate-labeled RGD peptide
From the text: (§1) An example of a tumor-targeted molecular probe is LS-301, which has the structure, Cypate-cyclo (D-Cys-Gly-Arg-Asp-Ser-Pro-Cys)-Lys-OH. The spectral properties of LS-301 are suitable for NIR imaging applications (e.g., excitation/emission 790/810 nm in 20% DMSO solution; fluorescence quantum yield (ψ) 0.1 referenced to ICG). […] In addition to conferring tumor selectivity on LS-301, the unnatural D-cysteine on the peptide moiety confers higher stability because of its resistance to degradation by proteases. This biological stability in serum allows initial imaging and potential follow-up surgery to be conducted within 48 hours before subsequent hydrolysis of the probe through L-amino acid residues.

[1] = Biological stability in serum; assay type: in vitro ADME; details: hydrolysis through L-amino acid residues
From the text: as §1

tumors = assay: Goggle-aided fluorescence imaging and liver resection, rabbit; assay type: in vivo; details: fluorescence goggle system 100, confirmed by ultrasound and histopathology
Description: (§2) In another example, a multimodal detection technique was implemented in which goggle-aided fluorescence imaging (e.g., using goggle device 102 (shown in FIG. 1) and indocyanine green dye) was combined with ultrasound imaging and standard histology. Specifically, fluorescence imaging was used to detect liver tumors in mice and to perform liver resections on the tumors. […] Further, liver resection was performed on a rabbit using ultrasound, fluorescence imaging, and standard histology. […] The excised tissues were later examined by histopathology, and it was confirmed that the tumors were cancerous.

liver tumors = assay: Goggle-aided fluorescence imaging of liver tumors, mice; assay type: in vivo; details: goggle device 102
Description: as §2

[2] = test system: hepatocellular carcinoma (HCC); assay: Goggle-aided fluorescence imaging of hepatocellular carcinoma in patients; assay type: in vivo; details: human patients
From the text: In another example, goggle device 102 (shown in FIG. 1) and indocyanine green dye were used to image hepatocellular carcinoma (HCC) in human patients. Both intravenous and transarterial hepatic (TAH) delivery of indocyanine green dye were used. […] Histologic validation was used to confirm HCC in the patients.

Chain of ABIR (P06756 31-889 limits assumed): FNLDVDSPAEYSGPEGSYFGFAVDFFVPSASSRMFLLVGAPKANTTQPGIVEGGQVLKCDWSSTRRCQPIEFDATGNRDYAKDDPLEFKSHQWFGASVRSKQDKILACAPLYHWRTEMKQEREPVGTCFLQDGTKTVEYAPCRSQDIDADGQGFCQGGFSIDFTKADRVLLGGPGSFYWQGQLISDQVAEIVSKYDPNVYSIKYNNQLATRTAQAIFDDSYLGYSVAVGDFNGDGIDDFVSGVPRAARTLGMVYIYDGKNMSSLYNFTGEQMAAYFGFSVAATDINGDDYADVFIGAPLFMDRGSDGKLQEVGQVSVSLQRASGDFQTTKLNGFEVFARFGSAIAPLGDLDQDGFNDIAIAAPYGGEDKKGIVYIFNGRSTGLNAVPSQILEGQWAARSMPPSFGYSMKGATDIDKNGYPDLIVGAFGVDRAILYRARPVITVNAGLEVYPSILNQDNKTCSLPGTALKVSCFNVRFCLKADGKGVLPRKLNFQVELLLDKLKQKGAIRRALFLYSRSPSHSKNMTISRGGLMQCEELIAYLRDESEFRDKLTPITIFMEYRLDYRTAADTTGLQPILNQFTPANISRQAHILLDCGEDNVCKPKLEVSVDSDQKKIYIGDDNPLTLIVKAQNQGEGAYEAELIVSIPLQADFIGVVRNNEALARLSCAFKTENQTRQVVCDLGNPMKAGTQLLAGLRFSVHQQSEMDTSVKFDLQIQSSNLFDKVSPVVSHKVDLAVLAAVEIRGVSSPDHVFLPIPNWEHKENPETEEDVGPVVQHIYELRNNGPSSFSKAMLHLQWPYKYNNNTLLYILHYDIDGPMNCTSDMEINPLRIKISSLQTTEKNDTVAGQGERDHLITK
Chain of ABIR (P06756 891-1048 partner limits assumed): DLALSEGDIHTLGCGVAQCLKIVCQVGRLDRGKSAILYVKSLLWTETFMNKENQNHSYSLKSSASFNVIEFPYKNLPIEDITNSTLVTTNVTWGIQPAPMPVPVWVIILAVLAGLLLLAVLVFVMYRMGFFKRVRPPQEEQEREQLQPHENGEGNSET
Chain of ABIR (P05106 27-788): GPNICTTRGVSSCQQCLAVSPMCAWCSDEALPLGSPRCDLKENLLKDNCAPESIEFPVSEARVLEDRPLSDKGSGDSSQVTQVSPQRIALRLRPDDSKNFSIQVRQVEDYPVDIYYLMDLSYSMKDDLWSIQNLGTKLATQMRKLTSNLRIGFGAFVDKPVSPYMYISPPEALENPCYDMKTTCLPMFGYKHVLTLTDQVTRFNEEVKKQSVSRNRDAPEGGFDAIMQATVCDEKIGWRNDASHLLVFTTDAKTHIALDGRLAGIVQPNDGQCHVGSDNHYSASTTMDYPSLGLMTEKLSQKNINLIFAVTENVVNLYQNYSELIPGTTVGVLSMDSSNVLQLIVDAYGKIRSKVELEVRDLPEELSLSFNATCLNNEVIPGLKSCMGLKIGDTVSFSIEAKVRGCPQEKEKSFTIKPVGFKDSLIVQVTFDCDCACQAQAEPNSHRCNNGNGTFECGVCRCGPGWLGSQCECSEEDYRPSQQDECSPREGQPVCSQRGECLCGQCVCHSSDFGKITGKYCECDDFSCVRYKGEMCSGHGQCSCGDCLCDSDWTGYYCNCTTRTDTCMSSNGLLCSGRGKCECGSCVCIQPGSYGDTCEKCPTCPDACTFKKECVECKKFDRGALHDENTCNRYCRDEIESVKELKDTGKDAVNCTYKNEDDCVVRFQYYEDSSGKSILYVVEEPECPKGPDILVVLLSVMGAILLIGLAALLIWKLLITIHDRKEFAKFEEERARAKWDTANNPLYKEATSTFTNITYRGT

| SMILES | Ki (ABIR) | biological stability in serum: time for imaging and follow-up surgery before hydrolysis of the probe [1] | observation of tumors by fluorescence imaging (tumors) | detection of liver tumors by fluorescence imaging (liver tumors) | HCC-to-liver fluorescence contrast, TAH delivery instead of intravenous delivery ([2]; goggle device 102) | detection of HCC tumors by fluorescence imaging ([2]; intravenous and transarterial hepatic (TAH) delivery) |
| --- | --- | --- | --- | --- | --- | --- |
| CC1(C)C(/C=C/C=C/C=C/C=C2/N(CCC(=O)N[C@@H]3CSSC[C@@H](C(=O)N[C@@H](CCCCN)C(=O)O)NC(=O)[C@@H]4CCCN4C(=O)[C@H](CO)NC(=O)[C@H](CC(=O)O)NC(=O)[C@H](CCCNC(=N)N)NC(=O)CNC3=O)c3ccc4ccccc4c3C2(C)C)=[N+](CCC(=O)[O-])c2ccc3ccccc3c21 [LS-301, Cypate-cyclo (D-Cys-Gly-Arg-Asp-Ser-Pro-Cys)-Lys-OH] (X1-[dC]GRDSPCK-OH; disulfide 1-7) | 26.2 ± 0.4 nM | ≤ 48 hours |  |  |  |  |
| CC1(C)C(/C=C/C=C/C=C/C=C2\N(CCCCS(=O)(=O)O)c3ccc4ccccc4c3C2(C)C)=[N+](CCCCS(=O)(=O)[O-])c2ccc3ccccc3c21 [indocyanine green dye, indocyanine green] |  |  | observed in real-time | In addition to single tumors, scattered satellite lesions were also detected | significantly higher | Primary tumors and satellite tumors were both detected |

Source: US12238268B2, “Imaging systems and methods” (priority 2012, dated 2025)
